According to PubChem BioAssay AID330 (DTP/NCI, 2004):
Values joined by “and” are separate entries in the source; they are usually repeats but may differ in a detail not shown here. Equal entries are not always repeated. Toxic doses and inconclusive results are not listed.

Test system: P388 leukemia ip, CD2F1 mice, survival T/C
Assay: NCI In Vivo Anticancer Drug Screen. Data for tumor model P388 Leukemia (intraperitoneal) in CD2F1 (CDF1) mice
Conditions: endpoint: median survival time, higher = longer survival
In short: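 Mice carrying the transplanted tumor received test compound or vehicle. Survival was recorded in each group, and the value is the treated-group measurement divided by that of the vehicle-treated control group.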

[1] = dose: 50.0 mg/kg/injection, schedule: Q01DX005 (ip), vehicle: saline with Tween-80
[2] = dose: 100.0 mg/kg/injection, schedule: Q01DX005 (ip), vehicle: saline with Tween-80
[3] = dose: 200.0 mg/kg/injection, schedule: Q01DX005 (ip), vehicle: saline with Tween-80
[4] = dose: 200.0 mg/kg/injection, schedule: Q01DX009 (ip), vehicle: saline

## COc1ccc(S(=O)(=O)N/N=C\c2cccc([N+](=O)[O-])c2O)cc1OC
[1]
  T/C: 102 % of control
[2]
  T/C: 99 % of control
[3]
  T/C: 101 % of control

## CCOc1cc2c(cc1Cc1ccc(OC)cc1)OCO2
dose: 50.0 mg/kg/injection, schedule: Q01DX005 (ip), vehicle: distilled water + alcohol
  T/C: 108 % of control
dose: 100.0 mg/kg/injection, schedule: Q01DX005 (ip), vehicle: distilled water + alcohol
  T/C: 95 % of control
dose: 200.0 mg/kg/injection, schedule: Q01DX005 (ip), vehicle: distilled water + alcohol
  T/C: 109 % of control

## COc1ccc(Br)c(C(=O)O)c1OS(=O)(=O)c1ccc(C)cc1
dose: 25.0 mg/kg/injection, schedule: Q01DX009 (ip), vehicle: other
  T/C: 106 % of control
dose: 50.0 mg/kg/injection, schedule: Q01DX009 (ip), vehicle: other
  T/C: 105 % of control
dose: 100.0 mg/kg/injection, schedule: Q01DX009 (ip), vehicle: other
  T/C: 100 % of control
dose: 200.0 mg/kg/injection, schedule: Q01DX009 (ip), vehicle: other
  T/C: 105 % of control
dose: 400.0 mg/kg/injection, schedule: Q01DX009 (ip), vehicle: other
  T/C: 108 % of control

## CCOc1nc(N)nc(C)c1N=Nc1ccc(Cl)cc1
dose: 60.0 mg/kg/injection, schedule: Q01DX005 (ip), vehicle: Klucel + Tween-80
  T/C: 100 % of control
dose: 120.0 mg/kg/injection, schedule: Q01DX005 (ip), vehicle: Klucel + Tween-80
  T/C: 101 % of control

## OCC(F)(F)C(F)(F)C(F)(F)F
dose: 100.0 mg/kg/injection, schedule: Q04DX003 (ip), vehicle: saline
  T/C: 104 % of control
dose: 200.0 mg/kg/injection, schedule: Q04DX003 (ip), vehicle: saline
  T/C: 90 % of control
dose: 400.0 mg/kg/injection, schedule: Q04DX003 (ip), vehicle: saline
  T/C: 90 % of control

## COC(=O)C1=[N+]([O-])OC(C(=O)OC)C1c1ccc(OC)cc1 (stereo unspecified)
[1]
  T/C: 97 % of control
[2]
  T/C: 97 % of control
[3]
  T/C: 98 % of control

## Cn1cnc2cc(NCc3ccccc3)c([N+](=O)[O-])cc2c1=O
dose: 100.0 mg/kg/injection, schedule: Q04DX003 (ip), vehicle: Klucel (hydroxypropylcellulose) (HPC)
  T/C: 100 % of control
dose: 200.0 mg/kg/injection, schedule: Q04DX003 (ip), vehicle: Klucel (hydroxypropylcellulose) (HPC)
  T/C: 106 % of control
dose: 400.0 mg/kg/injection, schedule: Q04DX003 (ip), vehicle: Klucel (hydroxypropylcellulose) (HPC)
  T/C: 101 % of control

## C[As](C)SCC(NC(=O)CCC(N)C(=O)O)C(=O)NCC(=O)O (stereo unspecified)
dose: 12.5 mg/kg/injection, schedule: Q01DX009 (ip), vehicle: saline
  T/C: 104 % of control
dose: 25.0 mg/kg/injection, schedule: Q01DX009 (ip), vehicle: saline
  T/C: 109 % of control
[4]
  T/C: 97 % of control

## CCC(c1ccc(O)cc1)C(CC)c1ccc(OC)cc1 (stereo unspecified)
dose: 100.0 mg/kg/injection, schedule: Q04DX003 (ip), vehicle: saline with Tween-80
  T/C: 104 % of control
dose: 200.0 mg/kg/injection, schedule: Q04DX003 (ip), vehicle: saline with Tween-80
  T/C: 86 % of control

## Nc1c2c(=O)[nH]c(=O)c2c(N)c2c(=O)c3ccccc3c(=O)c12
dose: 60.0 mg/kg/injection, schedule: Q01DX005 (ip), vehicle: saline
  T/C: 103 % of control
dose: 120.0 mg/kg/injection, schedule: Q01DX005 (ip), vehicle: saline
  T/C: 104 % of control
dose: 240.0 mg/kg/injection, schedule: Q01DX005 (ip), vehicle: saline
  T/C: 105 % of control

## Clc1c2ccccc2cc2cccnc12
dose: 50.0 mg/kg/injection, schedule: Q01DX009 (ip), vehicle: saline
  T/C: 101 % of control
dose: 100.0 mg/kg/injection, schedule: Q01DX009 (ip), vehicle: saline
  T/C: 100 % of control
[4]
  T/C: 102 % of control and 86 % of control

## O=C1c2cccc3cccc(c23)C(=O)N1CCNCCN1C(=O)c2cccc3cccc(c23)C1=O
dose: 60.0 mg/kg/injection, schedule: Q01DX005 (ip), vehicle: saline with Tween-80
  T/C: 91 % of control
dose: 240.0 mg/kg/injection, schedule: Q01DX005 (ip), vehicle: saline with Tween-80
  T/C: 88 % of control

## O=c1c2ccccc2nc(-c2ccccc2)n1-c1nccs1
[1]
  T/C: 86 % of control
[2]
  T/C: 89 % of control
[3]
  T/C: 91 % of control

## COc1ccc(C(=O)/C=C/c2ccc(OCc3ccccc3)cc2)c(OC)c1
dose: 6.25 mg/kg/injection, schedule: Q01DX009 (ip), vehicle: saline with Tween-80
  T/C: 99 % of control
dose: 12.5 mg/kg/injection, schedule: Q01DX009 (ip), vehicle: saline with Tween-80
  T/C: 93 % of control
dose: 25.0 mg/kg/injection, schedule: Q01DX009 (ip), vehicle: saline with Tween-80
  T/C: 91 % of control
